Molecules are shown by their SMILES.

Data set [1] deals with Plasmodium falciparum. Description: Resistance index, ratio for IC50 for chloroquine-resistant Plasmodium falciparum isolate RKL9 to IC50 for chloroquine-sensitive Plasmodium falciparum 3D7. Type of data set: functional.
Data set [2] is described as follows: Therapeutic index, TC50 for human HeLa cells to IC50 for chloroquine-resistant Plasmodium falciparum isolate RKL9. In kind it is cell-based. To be noted: read-out: TI.
The nature of data set [3]: Cytotoxic activity against human HeLa cells after 24 to 48 hrs by MTT assay. Type of data set: cell-based. As to conditions: read-out: TC50 (the source's name).
Data set [4] concerns Plasmodium falciparum. Nature of the data set: Antiplasmodial activity against blood stage of chloroquine-resistant Plasmodium falciparum isolate RKL9 infected in human O positive erythrocytes after 48 hrs by SYBR green I-based fluorescence assay. To be noted: isolate RKL9, 48 h. In kind it is functional, organism-based.
The subject of data set [5] is Plasmodium falciparum. Nature of the data set: Antiplasmodial activity against blood stage of chloroquine-sensitive Plasmodium falciparum 3D7 infected in human O positive erythrocytes after 48 hrs by SYBR green-I based fluorescence assay. To be noted: 3D7, 48 h. In kind it is functional, organism-based.

With `O=C(/C=C/c1ccc(Cl)cc1Cl)/C=C/c1ccc(Cl)cc1Cl`, the “Ratio IC50” value in data set [1] is 1.08. The selectivity ratio in data set [2] was greater than 25. Further, the CC50 in data set [3] was greater than 269 µM. Also, the figures for the IC50 in data set [4] and in data set [5] were 10.8 µM and 9.94 µM, respectively.

`O=C(/C=C/c1ccccc1)/C=C/c1ccccc1` gave an IC50 in data set [5] of 213 µM.

In turn, `O=C(/C=C/c1ccc(Br)cc1)/C=C/c1ccc(Br)cc1` had an IC50 in data set [5] of 222 µM.

For the compound `O=C(/C=C/c1cccc([N+](=O)[O-])c1)/C=C/c1cccc([N+](=O)[O-])c1`, the IC50 in data set [5] was found to be 38.5 µM.

Consider `C(=C\c1ccccc1)/C1=NN(c2ccccc2)C(c2ccccc2)C1` (configuration not stated), for which, in data set [5], the IC50 was greater than 308 µM.

Take `Fc1ccc(/C=C/C2=NN(c3ccccc3)C(c3ccc(F)cc3)C2)cc1` (configuration not stated): the “Ratio IC50” value in data set [1] was determined as 1.21. In data set [2], the selectivity ratio is greater than 25. For the same compound, the CC50 in data set [3] is greater than 277 µM. The concentration for half-maximal inhibition (IC50) in data set [4] was found to be 11.1 µM; in data set [5], 9.1 µM.

In data set [5], `COc1ccc(/C=C/C2=NN(c3ccccc3)C(c3ccc(OC)cc3)C2)cc1` (configuration not stated) gave a 50% inhibitory concentration (IC50) greater than 130 µM.

`Cc1ccc(/C=C/C2=NN(c3ccccc3)C(c3ccc(C)cc3)C2)cc1` (configuration not stated) returned an IC50 in data set [5] greater than 142 µM.

In turn, `CN(C)c1ccc(/C=C/C(=O)/C=C/c2ccc(N(C)C)cc2)cc1` displayed a half-maximal inhibitory concentration (IC50) in data set [5] of 156 µM.

Consider `COc1ccc(/C=C/C(=O)/C=C/c2ccc(OC)c(OC)c2)cc1OC`, for which the “Ratio IC50” value in data set [1] was found to be 0.85. For the same compound, in data set [2], the selectivity ratio was 166. In addition, in data set [3], the CC50 stood at 282 µM. Also, the results for the half-inhibitory concentration (IC50) in data set [4] and in data set [5] were 1.69 µM and 1.97 µM, respectively.

`O=C(/C=C/c1ccc(F)cc1)/C=C/c1ccc(F)cc1` displayed an IC50 in data set [5] of 133 µM.

For the compound `O=C(/C=C/c1ccccc1Cl)/C=C/c1ccccc1Cl`, the “Ratio IC50” value in data set [1] amounted to 1. Moreover, the selectivity ratio in data set [2] stood at 37. Besides, in data set [3], the CC50 is 231 µM. Further, the IC50 in data set [4] and in data set [5] was 6.26 µM each time.

On to `COc1ccccc1/C=C/C(=O)/C=C/c1ccccc1OC`, for which the 50% inhibitory concentration (IC50) in data set [5] is 74.7 µM.

As for `O=C(/C=C/c1ccc(Cl)cc1)/C=C/c1ccc(Cl)cc1`, in data set [5], the half-inhibitory concentration (IC50) came out at 92.4 µM.

In data set [5], `Cc1ccc(/C=C/C(=O)/C=C/c2ccc(C)cc2)cc1` registered a concentration for half-maximal inhibition (IC50) of 114 µM.

As for `COc1ccc(/C=C/C(=O)/C=C/c2ccc(OC)cc2)cc1`, the 50% inhibitory concentration (IC50) in data set [5] was determined as 255 µM.

As a reminder, the IC50 is the midpoint of a concentration-inhibition curve. A low value points to inhibition by little substance.

These data come from ChEMBL document CHEMBL1770070, “Dibenzylideneacetone analogues as novel Plasmodium falciparum inhibitors” (Bioorg Med Chem Lett, 2011).
